The text below walks through data of the supplement of paper PMC6045584.

Compound in one assay: COc1cccc2c1C(=O)c1c(O)c3c(c(O)c1C2=O)C[C@@](O)(C(=O)CO)C[C@@H]3O[C@H]1C[C@H](N)[C@H](O)[C@H](C)O1 [DOXORUBICIN]
Nature of the assay: surviving fraction relative to DMSO-only wells; higher = less growth inhibition. The settings on record: exposure time: 5 days. Put shortly: (§1)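 Surviving fraction was calculated by normalising CellTiter-Glo luminescence to the median of DMSO-only wells. Tumour cell lines in log phase were seeded in 384-well plates at 250–500 cells per well, and 24 hours later were exposed continuously for five days to inhibitors at 0.5, 1, 5, 10, 50, 100, 500 and 1000 nM.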

Compound in the next assay: O=c1[nH]cc(F)c(=O)[nH]1 [FLUOROURACIL]
The assay is described as above. Conditions: exposure time: 5 days. Put shortly: as §1

± gives the standard deviation of the averaged measurements.

Take BT549 BREAST: the surviving fraction worked out at 1.07 ± 0.1 in the assay with DOXORUBICIN (0.5 nM); 1.03 ± 0.23 in the assay with DOXORUBICIN (1 nM); 0.896 ± 0.087 with DOXORUBICIN (5 nM); 0.378 ± 0.095 with DOXORUBICIN (10 nM); 0.229 ± 0.022 with DOXORUBICIN (50 nM); 0.0903 ± 0.019 in the assay with DOXORUBICIN (100 nM). Besides, the surviving fraction in the assay with DOXORUBICIN (500 nM) amounted to 0.0257 ± 0.0057; with DOXORUBICIN (1000 nM) it was 0.0267 ± 0.0015; with FLUOROURACIL (0.5 nM), 1.07 ± 0.13; in the assay with FLUOROURACIL (1 nM) it was 1.06 ± 0.024; in the assay with FLUOROURACIL (5 nM), 1.05 ± 0.21; with FLUOROURACIL (10 nM), 0.95 ± 0.12. Further, the surviving fraction with FLUOROURACIL (50 nM) was determined as 0.8 ± 0.06; in the assay with FLUOROURACIL (100 nM) it was 0.843 ± 0.15; with FLUOROURACIL (500 nM), 0.872 ± 0.084; with FLUOROURACIL (1000 nM), 0.585 ± 0.071.

Consider SCC36 HEADNECK, for which the surviving fraction with DOXORUBICIN (0.5 nM) is 0.694 ± 0.073; with DOXORUBICIN (1 nM), 1.13 ± 0.046; in the assay with DOXORUBICIN (5 nM), 0.903 ± 0.001; with DOXORUBICIN (10 nM), 0.795 ± 0.087; in the assay with DOXORUBICIN (50 nM), 0.426 ± 0.024; with DOXORUBICIN (100 nM), 0.5 ± 0.069. In addition, the surviving fraction in the assay with DOXORUBICIN (500 nM) amounted to 0.035 ± 0.0027; with DOXORUBICIN (1000 nM), 0.034 ± 0.002; in the assay with FLUOROURACIL (0.5 nM), 0.92 ± 0.093; with FLUOROURACIL (1 nM) it was 0.872 ± 0.052; in the assay with FLUOROURACIL (5 nM) it was 1.06 ± 0.13; with FLUOROURACIL (10 nM) it was 1.05 ± 0.031. In addition, the surviving fraction with FLUOROURACIL (50 nM) is 0.739 ± 0.095; in the assay with FLUOROURACIL (100 nM), 0.775 ± 0.029; with FLUOROURACIL (500 nM), 0.624 ± 0.076; with FLUOROURACIL (1000 nM) it was 0.529 ± 0.047.

HCC1806 BREAST: the surviving fraction with DOXORUBICIN (0.5 nM) was 0.963 ± 0.033; with DOXORUBICIN (1 nM) it was 1.01 ± 0.076; with DOXORUBICIN (5 nM) it was 0.75 ± 0.068; in the assay with DOXORUBICIN (10 nM), 0.369 ± 0.039; with DOXORUBICIN (50 nM) it was 0.102 ± 0.013; in the assay with DOXORUBICIN (100 nM), 0.0793 ± 0.005. Besides, the surviving fraction with DOXORUBICIN (500 nM) was 0.0243 ± 0.0011; with DOXORUBICIN (1000 nM), 0.0257 ± 0.0011; with FLUOROURACIL (0.5 nM), 1.1 ± 0.028; in the assay with FLUOROURACIL (1 nM), 1.02 ± 0.12; with FLUOROURACIL (5 nM), 1.08 ± 0.043; with FLUOROURACIL (10 nM), 0.973 ± 0.081. Besides, the surviving fraction with FLUOROURACIL (50 nM) was found to be 0.992 ± 0.069; in the assay with FLUOROURACIL (100 nM), 0.939 ± 0.065; in the assay with FLUOROURACIL (500 nM), 0.737 ± 0.12; with FLUOROURACIL (1000 nM) it was 0.601 ± 0.033.

For SG43 HEADNECK, the surviving fraction with DOXORUBICIN (0.5 nM) was found to be 0.854 ± 0.15; with DOXORUBICIN (1 nM), 0.776 ± 0.14; with DOXORUBICIN (5 nM), 0.802 ± 0.076; with DOXORUBICIN (10 nM), 0.675 ± 0.16; in the assay with DOXORUBICIN (50 nM) it was 0.453 ± 0.056; in the assay with DOXORUBICIN (100 nM), 0.322 ± 0.067. Moreover, the surviving fraction turned out to be 0.0633 ± 0.027 in the assay with DOXORUBICIN (500 nM); 0.048 ± 0.024 in the assay with DOXORUBICIN (1000 nM); 1.07 ± 0.14 with FLUOROURACIL (0.5 nM); 0.991 ± 0.21 with FLUOROURACIL (1 nM); 0.979 ± 0.25 with FLUOROURACIL (5 nM); 1.06 ± 0.3 with FLUOROURACIL (10 nM). The surviving fraction with FLUOROURACIL (50 nM) was found to be 1.1 ± 0.22; with FLUOROURACIL (100 nM), 0.905 ± 0.073; with FLUOROURACIL (500 nM), 0.977 ± 0.088; with FLUOROURACIL (1000 nM), 0.879 ± 0.054.

Consider MG63 BONE, for which the surviving fraction with DOXORUBICIN (0.5 nM) amounted to 1.02 ± 0.041; with DOXORUBICIN (1 nM) it was 1.04 ± 0.053; with DOXORUBICIN (5 nM) it was 1.04 ± 0.022; with DOXORUBICIN (10 nM) it was 1.03 ± 0.028; with DOXORUBICIN (50 nM), 0.21 ± 0.014; with DOXORUBICIN (100 nM), 0.16 ± 0.025. The surviving fraction came out at 0.0327 ± 0.0025 with DOXORUBICIN (500 nM); 0.031 ± 0.0017 in the assay with DOXORUBICIN (1000 nM); 1.02 ± 0.041 with FLUOROURACIL (0.5 nM); 1 ± 0.028 with FLUOROURACIL (1 nM); 1.05 ± 0.021 with FLUOROURACIL (5 nM); 1.03 ± 0.019 in the assay with FLUOROURACIL (10 nM). For the same test system, the surviving fraction with FLUOROURACIL (50 nM) came out at 1.06 ± 0.024; in the assay with FLUOROURACIL (100 nM) it was 0.99 ± 0.023; with FLUOROURACIL (500 nM), 0.947 ± 0.024; with FLUOROURACIL (1000 nM), 0.805 ± 0.013.

In the case of ZR751 BREAST, the surviving fraction with DOXORUBICIN (0.5 nM) was found to be 1.12 ± 0.095; with DOXORUBICIN (1 nM) it was 1.08 ± 0.16; with DOXORUBICIN (5 nM), 0.786 ± 0.074; with DOXORUBICIN (10 nM), 0.846 ± 0.12; with DOXORUBICIN (50 nM), 0.585 ± 0.047; with DOXORUBICIN (100 nM), 0.361 ± 0.054. In addition, the surviving fraction was 0.174 ± 0.018 in the assay with DOXORUBICIN (500 nM); 0.0463 ± 0.00058 with DOXORUBICIN (1000 nM); 1.21 ± 0.13 with FLUOROURACIL (0.5 nM); 1.26 ± 0.11 in the assay with FLUOROURACIL (1 nM); 0.966 ± 0.051 with FLUOROURACIL (5 nM); 1.12 ± 0.18 with FLUOROURACIL (10 nM). The surviving fraction with FLUOROURACIL (50 nM) was determined as 1.04 ± 0.12; with FLUOROURACIL (100 nM) it was 1.1 ± 0.16; in the assay with FLUOROURACIL (500 nM), 0.974 ± 0.072; in the assay with FLUOROURACIL (1000 nM), 0.81 ± 0.083.

As to CAL51 BREAST, the surviving fraction in the assay with DOXORUBICIN (0.5 nM) came to 0.903 ± 0.044; in the assay with DOXORUBICIN (1 nM), 0.919 ± 0.026; with DOXORUBICIN (5 nM) it was 0.872 ± 0.029; in the assay with DOXORUBICIN (10 nM) it was 0.62 ± 0.055; with DOXORUBICIN (50 nM), 0.112 ± 0.011; in the assay with DOXORUBICIN (100 nM), 0.0608 ± 0.0036. The surviving fraction in the assay with DOXORUBICIN (500 nM) was 0.0247 ± 0.00076; with DOXORUBICIN (1000 nM) it was 0.0238 ± 0.0015; in the assay with FLUOROURACIL (0.5 nM) it was 0.931 ± 0.016; in the assay with FLUOROURACIL (1 nM), 0.918 ± 0.09; with FLUOROURACIL (5 nM), 0.944 ± 0.048; with FLUOROURACIL (10 nM), 0.971 ± 0.016. Besides, the surviving fraction stood at 1 ± 0.057 in the assay with FLUOROURACIL (50 nM), 0.904 ± 0.017 with FLUOROURACIL (100 nM), 0.915 ± 0.015 with FLUOROURACIL (500 nM) and 0.763 ± 0.018 with FLUOROURACIL (1000 nM).

As to MDAMB468 BREAST, the surviving fraction with DOXORUBICIN (0.5 nM) stood at 0.897 ± 0.065; with DOXORUBICIN (1 nM), 0.931 ± 0.075; with DOXORUBICIN (5 nM), 0.992 ± 0.039; with DOXORUBICIN (10 nM), 0.969 ± 0.013; with DOXORUBICIN (50 nM) it was 0.49 ± 0.18; with DOXORUBICIN (100 nM), 0.342 ± 0.006. For the same test system, the surviving fraction in the assay with DOXORUBICIN (500 nM) is 0.11 ± 0.035; in the assay with DOXORUBICIN (1000 nM) it was 0.038 ± 0.0072; with FLUOROURACIL (0.5 nM) it was 0.887 ± 0.039; with FLUOROURACIL (1 nM) it was 0.885 ± 0.095; with FLUOROURACIL (5 nM) it was 0.919 ± 0.064; with FLUOROURACIL (10 nM), 0.89 ± 0.058. The surviving fraction with FLUOROURACIL (50 nM) came to 0.881 ± 0.12; with FLUOROURACIL (100 nM), 0.816 ± 0.06; with FLUOROURACIL (500 nM), 0.859 ± 0.076; in the assay with FLUOROURACIL (1000 nM), 0.706 ± 0.097.

As for MCF7 BREAST, the surviving fraction in the assay with DOXORUBICIN (0.5 nM) was 0.857 ± 0.038; in the assay with DOXORUBICIN (1 nM), 0.868 ± 0.042; in the assay with DOXORUBICIN (5 nM), 0.859 ± 0.053; with DOXORUBICIN (10 nM) it was 0.7804 ± 0.0075; with DOXORUBICIN (50 nM), 0.589 ± 0.032; with DOXORUBICIN (100 nM), 0.469 ± 0.0095. Also, the surviving fraction was 0.0898 ± 0.0037 in the assay with DOXORUBICIN (500 nM); 0.0774 ± 0.008 with DOXORUBICIN (1000 nM); 0.929 ± 0.055 in the assay with FLUOROURACIL (0.5 nM); 0.907 ± 0.043 with FLUOROURACIL (1 nM); 0.93 ± 0.035 in the assay with FLUOROURACIL (5 nM); 0.893 ± 0.027 in the assay with FLUOROURACIL (10 nM). Moreover, the surviving fraction was 0.973 ± 0.11 with FLUOROURACIL (50 nM), 0.986 ± 0.032 with FLUOROURACIL (100 nM), 0.837 ± 0.054 in the assay with FLUOROURACIL (500 nM) and 0.707 ± 0.033 in the assay with FLUOROURACIL (1000 nM).
